In ChEMBL document CHEMBL1909046, “DrugMatrix in vitro pharmacology data”:

Key:
[1] = target: T1, Thromboxane-A synthase (Homo sapiens, UniProt P24557); experiment: biochemical; assay type: tissue-based, Platelet; conditions: platelet;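 also: enzyme inhibition assay with PGH2 supplied as substrate; in other assays of this panel Not Active means under 50% inhibition at 10 µM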
T1 sequence (P24557 whole entry): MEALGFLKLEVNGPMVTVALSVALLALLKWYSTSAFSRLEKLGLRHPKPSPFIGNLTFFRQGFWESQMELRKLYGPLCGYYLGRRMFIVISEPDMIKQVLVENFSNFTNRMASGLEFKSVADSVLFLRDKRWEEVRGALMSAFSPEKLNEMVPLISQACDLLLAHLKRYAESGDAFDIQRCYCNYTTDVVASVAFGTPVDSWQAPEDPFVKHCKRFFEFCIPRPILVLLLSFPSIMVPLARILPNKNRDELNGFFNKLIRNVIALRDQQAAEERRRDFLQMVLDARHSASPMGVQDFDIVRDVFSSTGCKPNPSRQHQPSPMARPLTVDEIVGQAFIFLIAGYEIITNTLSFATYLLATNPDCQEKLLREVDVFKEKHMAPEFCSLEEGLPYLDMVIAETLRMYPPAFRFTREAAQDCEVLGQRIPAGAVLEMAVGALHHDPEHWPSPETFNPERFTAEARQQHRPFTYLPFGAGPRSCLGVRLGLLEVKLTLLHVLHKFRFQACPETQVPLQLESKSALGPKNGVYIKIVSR

[2] = target: T2, Alpha-1D adrenergic receptor (Homo sapiens, UniProt P25100); assay type: cell membranes, HEK293, Membrane; conditions: hek293; also: in other assays of this panel Not Active means under 50% inhibition at 10 µM
T2 sequence (P25100 whole entry): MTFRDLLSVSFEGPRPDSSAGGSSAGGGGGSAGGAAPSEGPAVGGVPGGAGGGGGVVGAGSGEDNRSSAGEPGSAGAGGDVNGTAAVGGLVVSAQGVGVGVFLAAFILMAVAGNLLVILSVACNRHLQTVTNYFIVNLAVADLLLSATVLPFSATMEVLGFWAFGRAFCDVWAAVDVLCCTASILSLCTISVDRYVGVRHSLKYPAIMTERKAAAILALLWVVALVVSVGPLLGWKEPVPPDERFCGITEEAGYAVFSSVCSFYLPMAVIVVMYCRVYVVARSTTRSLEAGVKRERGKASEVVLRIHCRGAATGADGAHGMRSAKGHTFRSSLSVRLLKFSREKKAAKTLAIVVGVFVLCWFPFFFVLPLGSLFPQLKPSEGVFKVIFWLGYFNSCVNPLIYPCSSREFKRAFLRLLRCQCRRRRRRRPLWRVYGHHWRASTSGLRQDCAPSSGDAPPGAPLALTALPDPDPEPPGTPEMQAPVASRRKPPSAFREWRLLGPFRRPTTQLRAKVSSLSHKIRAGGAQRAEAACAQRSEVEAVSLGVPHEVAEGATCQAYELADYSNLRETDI

[3] = target: T3, Neuropeptide Y receptor type 2 (Homo sapiens, UniProt P49146); assay type: cell membranes, Membrane; conditions: kan-ts; also: in other assays of this panel Not Active means under 50% inhibition at 10 µM
T3 sequence (P49146 whole entry): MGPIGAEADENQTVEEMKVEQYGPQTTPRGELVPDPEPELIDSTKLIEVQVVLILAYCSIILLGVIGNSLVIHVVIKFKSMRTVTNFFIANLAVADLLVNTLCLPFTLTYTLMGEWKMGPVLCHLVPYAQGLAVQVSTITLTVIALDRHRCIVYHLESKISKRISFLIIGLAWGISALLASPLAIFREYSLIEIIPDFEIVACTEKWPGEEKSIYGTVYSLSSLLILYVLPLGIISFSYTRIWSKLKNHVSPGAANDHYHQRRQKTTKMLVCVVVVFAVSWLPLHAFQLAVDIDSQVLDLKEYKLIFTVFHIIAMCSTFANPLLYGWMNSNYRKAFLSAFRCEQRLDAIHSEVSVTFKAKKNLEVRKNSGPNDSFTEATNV

[4] = target: Platelet-activating factor receptor (Homo sapiens, UniProt P25105); experiment: biochemical; assay type: tissue-based; conditions: platelet; also: in other assays of this panel Not Active means under 50% inhibition at 10 µM
[5] = target: C-C chemokine receptor type 5 (Homo sapiens, UniProt P51681); assay type: cell membranes, Membrane; conditions: hek293; also: in other assays of this panel Not Active means under 50% inhibition at 10 µM
[6] = DRUGMATRIX: Atrial Natriuretic Factor (ANF) radioligand binding (ligand: [125I] ANF (rat)); assay type: cell membranes, Cavia porcellus, Dunkin-Hartley, Adrenal gland, Membrane; conditions: Not Active = under 50% inhibition at 10 µM
[7] = target: Vascular endothelial growth factor receptor 1 (Homo sapiens, UniProt P17948); assay type: cell-based; conditions: huvec; also: in other assays of this panel Not Active means under 50% inhibition at 10 µM
[8] = target: 5-hydroxytryptamine receptor 1B (Rattus norvegicus, UniProt P28564); assay type: cell membranes, Wistar, Cerebral cortex, Membrane; also: in other assays of this panel Not Active means under 50% inhibition at 10 µM
[9] = target: cGMP-specific 3',5'-cyclic phosphodiesterase (Homo sapiens, UniProt O76074); experiment: DRUGMATRIX: Phosphodiesterase PDE5 enzyme inhibition (substrate: [3H]cGMP + cGMP); assay type: tissue-based, Platelet; conditions: platelet; Not Active = under 50% inhibition at 10 µM
[10] = target: T4, Cysteinyl leukotriene receptor 1 (Homo sapiens, UniProt Q9Y271); assay type: cell membranes, CHO-K1, Membrane; conditions: cho-k1; also: in other assays of this panel Not Active means under 50% inhibition at 10 µM
T4 sequence (Q9Y271 whole entry): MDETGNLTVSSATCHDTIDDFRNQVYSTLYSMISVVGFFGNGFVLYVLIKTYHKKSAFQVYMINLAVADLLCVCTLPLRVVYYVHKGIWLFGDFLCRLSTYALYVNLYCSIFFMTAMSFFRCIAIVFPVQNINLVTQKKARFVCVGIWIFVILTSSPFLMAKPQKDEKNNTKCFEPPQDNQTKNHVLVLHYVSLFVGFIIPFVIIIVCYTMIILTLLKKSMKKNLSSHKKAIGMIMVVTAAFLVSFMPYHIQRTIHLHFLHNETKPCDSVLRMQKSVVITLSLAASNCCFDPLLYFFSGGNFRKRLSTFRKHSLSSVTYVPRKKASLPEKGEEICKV

[11] = target: Mitogen-activated protein kinase 1 (Homo sapiens, UniProt P28482); experiment: DRUGMATRIX: Protein Serine/Threonine Kinase, ERK2 enzyme inhibition (substrate: Myelin Basic Protein); design: species or system Escherichia coli; conditions: Not Active = under 50% inhibition at 10 µM
Mitogen-activated protein kinase 1, sequence (P28482 whole entry): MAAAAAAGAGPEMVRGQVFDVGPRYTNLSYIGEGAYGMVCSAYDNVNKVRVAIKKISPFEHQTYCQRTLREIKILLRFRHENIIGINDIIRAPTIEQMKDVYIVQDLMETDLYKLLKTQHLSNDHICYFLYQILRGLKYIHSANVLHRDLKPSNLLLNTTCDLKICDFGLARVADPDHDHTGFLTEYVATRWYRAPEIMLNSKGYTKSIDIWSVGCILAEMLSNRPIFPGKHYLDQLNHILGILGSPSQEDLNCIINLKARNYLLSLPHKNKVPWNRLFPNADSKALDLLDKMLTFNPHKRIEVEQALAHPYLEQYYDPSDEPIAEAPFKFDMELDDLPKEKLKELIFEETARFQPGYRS

Vascular endothelial growth factor receptor 1, sequence (P17948 whole entry): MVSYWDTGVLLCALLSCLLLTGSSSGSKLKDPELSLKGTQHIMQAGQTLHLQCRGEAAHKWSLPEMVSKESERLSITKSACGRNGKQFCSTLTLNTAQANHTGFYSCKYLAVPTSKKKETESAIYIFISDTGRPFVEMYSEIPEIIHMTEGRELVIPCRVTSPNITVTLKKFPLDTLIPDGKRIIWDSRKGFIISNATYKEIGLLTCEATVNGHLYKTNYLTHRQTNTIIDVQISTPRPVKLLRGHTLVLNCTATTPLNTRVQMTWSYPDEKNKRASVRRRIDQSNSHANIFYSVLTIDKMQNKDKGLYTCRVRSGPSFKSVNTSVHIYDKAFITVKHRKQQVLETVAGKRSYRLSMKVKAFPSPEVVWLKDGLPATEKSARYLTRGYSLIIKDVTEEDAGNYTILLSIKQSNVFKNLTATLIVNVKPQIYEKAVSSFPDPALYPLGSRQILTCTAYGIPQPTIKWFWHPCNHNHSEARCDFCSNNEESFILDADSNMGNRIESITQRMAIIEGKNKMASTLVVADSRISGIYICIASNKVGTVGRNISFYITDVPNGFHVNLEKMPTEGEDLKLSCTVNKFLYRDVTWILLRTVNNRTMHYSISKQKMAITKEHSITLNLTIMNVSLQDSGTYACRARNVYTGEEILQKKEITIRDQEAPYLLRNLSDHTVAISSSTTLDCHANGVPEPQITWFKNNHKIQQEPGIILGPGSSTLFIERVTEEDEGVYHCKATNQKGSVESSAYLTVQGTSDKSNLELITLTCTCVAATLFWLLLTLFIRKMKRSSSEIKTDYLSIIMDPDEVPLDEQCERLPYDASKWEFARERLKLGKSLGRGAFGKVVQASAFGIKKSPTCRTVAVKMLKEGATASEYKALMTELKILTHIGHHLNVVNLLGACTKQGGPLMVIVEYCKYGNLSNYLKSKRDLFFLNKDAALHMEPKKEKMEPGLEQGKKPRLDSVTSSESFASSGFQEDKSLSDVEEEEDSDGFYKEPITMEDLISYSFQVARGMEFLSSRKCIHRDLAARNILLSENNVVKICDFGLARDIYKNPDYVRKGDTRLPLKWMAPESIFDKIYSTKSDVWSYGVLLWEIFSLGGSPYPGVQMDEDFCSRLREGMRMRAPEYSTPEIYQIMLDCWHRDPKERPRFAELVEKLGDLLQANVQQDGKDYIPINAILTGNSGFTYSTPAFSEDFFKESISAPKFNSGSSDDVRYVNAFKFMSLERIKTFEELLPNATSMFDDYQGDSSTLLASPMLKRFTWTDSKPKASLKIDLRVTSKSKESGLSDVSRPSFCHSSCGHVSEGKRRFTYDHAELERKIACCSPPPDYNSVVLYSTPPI
5-hydroxytryptamine receptor 1B, sequence (P28564 whole entry): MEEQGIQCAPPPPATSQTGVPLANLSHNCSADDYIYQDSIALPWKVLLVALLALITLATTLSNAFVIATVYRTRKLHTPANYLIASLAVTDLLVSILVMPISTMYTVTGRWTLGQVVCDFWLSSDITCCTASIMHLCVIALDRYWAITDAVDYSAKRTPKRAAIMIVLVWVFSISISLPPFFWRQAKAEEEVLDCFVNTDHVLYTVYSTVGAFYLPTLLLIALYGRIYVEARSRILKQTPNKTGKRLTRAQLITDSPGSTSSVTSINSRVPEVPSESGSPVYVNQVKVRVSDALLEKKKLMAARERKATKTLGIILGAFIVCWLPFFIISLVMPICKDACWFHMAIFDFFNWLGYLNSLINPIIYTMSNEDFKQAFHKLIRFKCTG
Platelet-activating factor receptor, sequence (P25105 whole entry): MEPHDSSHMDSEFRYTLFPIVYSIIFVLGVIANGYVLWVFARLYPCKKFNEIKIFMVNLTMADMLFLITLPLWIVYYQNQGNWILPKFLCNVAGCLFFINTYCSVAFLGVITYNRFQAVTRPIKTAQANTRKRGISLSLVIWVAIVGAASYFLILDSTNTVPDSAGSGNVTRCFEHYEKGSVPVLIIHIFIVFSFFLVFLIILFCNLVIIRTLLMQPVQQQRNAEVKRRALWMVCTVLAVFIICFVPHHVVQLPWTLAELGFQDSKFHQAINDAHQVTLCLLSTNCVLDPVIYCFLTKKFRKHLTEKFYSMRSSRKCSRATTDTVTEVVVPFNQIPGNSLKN
C-C chemokine receptor type 5, sequence (P51681 whole entry): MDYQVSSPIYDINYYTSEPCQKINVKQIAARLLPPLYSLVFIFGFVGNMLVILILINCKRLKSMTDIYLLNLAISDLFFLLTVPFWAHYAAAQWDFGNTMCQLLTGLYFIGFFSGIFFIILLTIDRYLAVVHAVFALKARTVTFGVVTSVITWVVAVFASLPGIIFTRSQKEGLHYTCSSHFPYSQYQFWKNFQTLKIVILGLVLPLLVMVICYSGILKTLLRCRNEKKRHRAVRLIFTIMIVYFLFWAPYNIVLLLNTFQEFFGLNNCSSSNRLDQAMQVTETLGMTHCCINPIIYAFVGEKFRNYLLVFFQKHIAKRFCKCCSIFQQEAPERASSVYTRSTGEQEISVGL

CC1(C)[C@H]2CC[C@]1(C)C(=O)C2 [(-)-CAMPHOR]
Not Active: IC50 [1] | IC50 [2] | IC50 [3] | IC50 [4] | IC50 [5] | IC50 [6] | Ki [6] | IC50 [7] | IC50 [8] | IC50 [9] | IC50 [10] | IC50 [11]

Nc1ccc(S(N)(=O)=O)cc1 [SULFANILAMIDE]
Not Active: IC50 [1] | IC50 [2] | IC50 [3] | IC50 [4] | IC50 [5] | IC50 [6] | Ki [6] | IC50 [7] | IC50 [8] | IC50 [9] | IC50 [10] | IC50 [11]

c1ccc2[nH]c(-c3cscn3)nc2c1 [THIABENDAZOLE]
Not Active: IC50 [1] | IC50 [2] | IC50 [3] | IC50 [4] | IC50 [5] | IC50 [6] | Ki [6] | IC50 [7] | IC50 [8] | IC50 [9] | IC50 [10] | IC50 [11]

CC[C@H]1OC(=O)[C@H](C)[C@@H](O[C@H]2C[C@@](C)(OC)[C@@H](O)[C@H](C)O2)[C@H](C)[C@@H](O[C@@H]2O[C@H](C)C[C@H](N(C)C)[C@H]2O)[C@](C)(O)C[C@@H](C)/C(=N\OCOCCOC)[C@H](C)[C@@H](O)[C@]1(C)O [ROXITHROMYCIN]
Not Active: IC50 [1] | IC50 [2] | IC50 [3] | IC50 [4] | IC50 [5] | IC50 [6] | Ki [6] | IC50 [7] | IC50 [8] | IC50 [9] | IC50 [10] | IC50 [11]

CCOC(=O)[C@H](CCc1ccccc1)N[C@@H](C)C(=O)N1[C@H](C(=O)O)C[C@@H]2CCC[C@@H]21
Not Active: IC50 [1] | IC50 [2] | IC50 [3] | IC50 [4] | IC50 [5] | IC50 [6] | Ki [6] | IC50 [7] | IC50 [8] | IC50 [9] | IC50 [10] | IC50 [11]

NNC(=O)c1ccncc1 [ISONIAZID]
Not Active: IC50 [1] | IC50 [2] | IC50 [3] | IC50 [4] | IC50 [5] | IC50 [6] | Ki [6] | IC50 [7] | IC50 [8] | IC50 [9] | IC50 [10] | IC50 [11]

Nc1nnc(-c2cccc(Cl)c2Cl)c(N)n1 [LAMOTRIGINE]
Not Active: IC50 [1] | IC50 [2] | IC50 [3] | IC50 [4] | IC50 [5] | IC50 [6] | Ki [6] | IC50 [7] | IC50 [8] | IC50 [9] | IC50 [10] | IC50 [11]

C[C@]12Cc3c[nH]nc3C[C@@H]1CC[C@@H]1[C@@H]2CC[C@@]2(C)[C@H]1CC[C@]2(C)O [STANOZOLOL]
Not Active: IC50 [1] | IC50 [2] | IC50 [3] | IC50 [4] | IC50 [5] | IC50 [6] | Ki [6] | IC50 [7] | IC50 [8] | IC50 [9] | IC50 [10] | IC50 [11]
